Measurements from patent publication US20120077883A1, “TREATMENT OF TINNITUS AND ASSOCIATED AUDITORY DYSFUNCTIONS” (priority 2009, published 2012).
Where two headings read alike, the source gives them in different places.

Key:
[1] = tested on: subjects with tinnitus
Source text: Four selected outcome variables were used in this preliminary analysis: Global improvement (GI), Tinnitus Handicap Inventory (THI) and Tinnitus Impairment Questionnaire (TBF 12) questionnaires and Minimum Masking Levels (MML). The changes on the outcome variables were obtained by subtracting week 12's scores from the screening scores. The presence of a negative result means a decrease on values.
In Table 2 the changes on outcome variables are listed by Global Improvement (GI) classification, as follows: GI 1=much better; 2=better; 3=slightly better; 4=no change; 5=slightly worse; 6=worse; 7=much worse; THI: Tinnitus Handicap Inventory, TBF 12: Tinnitus Impairment Questionnaire; MML: minimal masking levels, measured in dB HL (Hearing Level).
Four different criteria were established to determine whether a subject responded or not to treatment (see Table 3).

[2] = tested on: fibromyalgia patients; conditions: 10 to 40 mg over a 12 week period; cited from earlier work
[3] = Criteria 1: improvement on GI, 15 subjects
[4] = Criteria 2: Criteria 1 + decrease on THI
[5] = Criteria 3: Criteria 2 + decrease on TBF 12
[6] = Criteria 4: Criteria 3 + decrease on MML

Structure (SMILES): CN(C)CCC=C1c2ccccc2C=Cc2ccccc21 [Cyclobenzaprine]
- Most frequent side effects ([1]; 15 subjects, oral 15-30 mg/day): dry mouth and constipation
- Non responders % ([1]; Criteria 1: improvement on GI): 26.7%
- Non responders n ([1]; Criteria 1: improvement on GI): 4
- Responders % [1, 3]: 73.3%
- Responders n [1, 3]: 11
- Non responders % [1, 4]: 26.4%
- Non responders n [1, 4]: 4
- Responders % [1, 4]: 73.3%
- Responders n [1, 4]: 11
- Non responders % [1, 5]: 33.3%
- Non responders n [1, 5]: 5
- Responders % [1, 5]: 66.6%
- Responders n [1, 5]: 10
- Non responders % [1, 6]: 46.7%
- Non responders n [1, 6]: 7
- Responders % [1, 6]: 53.3%
- Responders n [1, 6]: 8
- Subjects Better or Much Better on GI ([1]; FIG. 1, 15 subjects): 8 subjects
- Tolerability ([1]; common side effects like constipation and dry mouth): tolerated well by most subjects
- Sleep and muscle relaxation ([1]; described by many patients): Improvement on sleep and muscle relaxation
- Subjects with changes on tinnitus pitch ([1]; human, in vivo): 5 out of 15 subjects
- Side effect that led one subject to interrupt the study ([1]; one subject, week 8): severe constipation
- Results in tinnitus at a dosage of 30 mg/day ([1]; oral, 30 mg/day): Excellent results
- Tinnitus change noticed where MML was not possible to measure ([1]; subject 3, intermittent tinnitus): change on intensity and less episodes
- Progression of Minimum Masking Levels (MML) during the tests ([1]; subjects 4, 8, 9, 10 and 11, FIGS. 2-6): progressive reduction
- Effect on tinnitus severity and tinnitus loudness ([1]; tested subjects): positive effect
- Tinnitus after treatment was weaned off ([1]; weaned off after 12 weeks): got worse in some patients
- Quality of sleep and pain score [2]: significantly improved
- Total number of tender points and muscle tightness [2]: reduction
